Data from ChEMBL document CHEMBL6127156, “Azaspirooctane-carboxylates as Novel Activators/Modulators of M4 for the Treatment of Alzheimer's Disease and Parkinson's Disease” (ACS Med Chem Lett, 2024).

Assays:
Format in all cases: functional, cell-based
[1] = molecular target: T1, Muscarinic acetylcholine receptor M4 (Homo sapiens, UniProt P08173); assay: Modulatory activity at M4 receptor (unknown origin) expressed in CHO-K1 cells assessed as cAMP production by TR-FRET analysis
T1 sequence (P08173 whole entry): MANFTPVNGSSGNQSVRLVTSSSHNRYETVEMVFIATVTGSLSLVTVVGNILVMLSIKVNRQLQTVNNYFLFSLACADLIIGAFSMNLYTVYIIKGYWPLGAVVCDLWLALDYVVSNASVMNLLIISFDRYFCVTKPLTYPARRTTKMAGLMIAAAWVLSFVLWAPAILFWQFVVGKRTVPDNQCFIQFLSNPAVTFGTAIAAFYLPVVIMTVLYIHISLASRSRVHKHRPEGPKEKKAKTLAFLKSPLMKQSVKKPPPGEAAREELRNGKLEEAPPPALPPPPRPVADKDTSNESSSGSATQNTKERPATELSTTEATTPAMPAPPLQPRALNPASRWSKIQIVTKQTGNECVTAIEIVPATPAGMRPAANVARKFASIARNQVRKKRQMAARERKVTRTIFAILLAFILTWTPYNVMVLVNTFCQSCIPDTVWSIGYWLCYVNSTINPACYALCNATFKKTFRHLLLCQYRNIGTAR

[2] = molecular target: T2, Muscarinic acetylcholine receptor M2 (Homo sapiens, UniProt P08172); assay: Modulatory activity at M2 receptor (unknown origin) expressed in CHO-K1 cells assessed as cAMP production by TR-FRET analysis
T2 sequence (P08172 whole entry): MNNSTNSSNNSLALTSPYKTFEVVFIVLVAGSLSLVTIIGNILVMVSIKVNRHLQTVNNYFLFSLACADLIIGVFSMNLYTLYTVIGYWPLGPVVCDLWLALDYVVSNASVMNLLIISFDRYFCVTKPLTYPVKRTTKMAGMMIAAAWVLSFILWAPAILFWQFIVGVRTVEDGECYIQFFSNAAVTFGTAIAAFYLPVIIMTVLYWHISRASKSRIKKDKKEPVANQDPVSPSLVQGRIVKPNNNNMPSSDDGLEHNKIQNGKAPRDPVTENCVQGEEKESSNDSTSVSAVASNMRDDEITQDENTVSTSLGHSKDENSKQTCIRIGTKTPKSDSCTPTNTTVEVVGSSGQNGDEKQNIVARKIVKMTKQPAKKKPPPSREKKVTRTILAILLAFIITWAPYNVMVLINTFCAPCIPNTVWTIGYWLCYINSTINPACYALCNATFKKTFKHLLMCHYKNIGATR

[3] = molecular target: T3, Muscarinic acetylcholine receptor M1 (Homo sapiens, UniProt P11229); assay: Modulatory activity at M1 receptor (unknown origin) expressed in CHO-K1 cells assessed as intracellular calcium flux incubated for 30 mins by Fluo-8 dye based FLIPR analysis
T3 sequence (P11229 whole entry): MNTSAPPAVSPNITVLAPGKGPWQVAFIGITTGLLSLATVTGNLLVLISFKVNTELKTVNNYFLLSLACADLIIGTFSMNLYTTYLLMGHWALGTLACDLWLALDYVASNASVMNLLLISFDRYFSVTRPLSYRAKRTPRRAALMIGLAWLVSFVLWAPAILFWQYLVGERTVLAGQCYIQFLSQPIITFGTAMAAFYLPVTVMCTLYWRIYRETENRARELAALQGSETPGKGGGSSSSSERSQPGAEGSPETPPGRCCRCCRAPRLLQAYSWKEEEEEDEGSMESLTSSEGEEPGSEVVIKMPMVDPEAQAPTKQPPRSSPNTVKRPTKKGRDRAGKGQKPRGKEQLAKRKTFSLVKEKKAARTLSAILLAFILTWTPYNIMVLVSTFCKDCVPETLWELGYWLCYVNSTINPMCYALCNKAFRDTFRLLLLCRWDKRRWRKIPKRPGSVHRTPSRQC

[4] = molecular target: Muscarinic acetylcholine receptor M3 (Homo sapiens, UniProt P20309); assay: Modulatory activity at M3 receptor (unknown origin) expressed in CHO-K1 cells assessed as intracellular calcium flux incubated for 30 mins by Fluo-8 dye based FLIPR analysis
[5] = molecular target: T4, Muscarinic acetylcholine receptor M5 (Homo sapiens, UniProt P08912); assay: Modulatory activity at M5 receptor (unknown origin) expressed in CHO-K1 cells assessed as intracellular calcium flux incubated for 30 mins by Fluo-8 dye based FLIPR analysis
T4 sequence (P08912 whole entry): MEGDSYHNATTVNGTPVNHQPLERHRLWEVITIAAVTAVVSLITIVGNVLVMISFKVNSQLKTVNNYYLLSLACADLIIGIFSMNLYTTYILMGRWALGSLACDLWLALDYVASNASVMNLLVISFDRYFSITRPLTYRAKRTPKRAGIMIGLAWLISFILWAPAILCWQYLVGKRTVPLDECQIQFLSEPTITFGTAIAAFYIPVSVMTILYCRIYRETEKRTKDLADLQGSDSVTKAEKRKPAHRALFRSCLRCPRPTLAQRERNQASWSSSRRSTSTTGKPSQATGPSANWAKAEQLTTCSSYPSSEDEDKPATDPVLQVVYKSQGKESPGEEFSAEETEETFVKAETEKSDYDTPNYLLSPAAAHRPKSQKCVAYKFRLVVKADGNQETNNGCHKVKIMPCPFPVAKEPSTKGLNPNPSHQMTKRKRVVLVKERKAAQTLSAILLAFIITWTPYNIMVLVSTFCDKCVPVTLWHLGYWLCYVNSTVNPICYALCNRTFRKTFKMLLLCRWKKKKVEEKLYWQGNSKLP

Sequence of Muscarinic acetylcholine receptor M3 (P20309 whole entry): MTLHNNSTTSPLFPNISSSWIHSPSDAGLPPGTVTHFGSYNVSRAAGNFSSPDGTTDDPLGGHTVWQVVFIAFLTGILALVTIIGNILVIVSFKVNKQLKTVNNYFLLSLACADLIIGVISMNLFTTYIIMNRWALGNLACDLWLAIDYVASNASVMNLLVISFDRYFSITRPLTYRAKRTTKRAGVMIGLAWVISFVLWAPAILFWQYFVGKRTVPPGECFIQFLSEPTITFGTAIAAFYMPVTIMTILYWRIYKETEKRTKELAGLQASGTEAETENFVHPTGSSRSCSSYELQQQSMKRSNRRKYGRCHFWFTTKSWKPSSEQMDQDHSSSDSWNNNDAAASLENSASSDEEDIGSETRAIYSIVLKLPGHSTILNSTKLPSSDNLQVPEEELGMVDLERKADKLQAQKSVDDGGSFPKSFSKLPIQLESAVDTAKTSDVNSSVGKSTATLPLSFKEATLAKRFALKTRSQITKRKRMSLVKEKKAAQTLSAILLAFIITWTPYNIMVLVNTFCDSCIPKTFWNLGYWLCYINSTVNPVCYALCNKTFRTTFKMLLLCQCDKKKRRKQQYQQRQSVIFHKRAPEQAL

| EC50 [1] [µM] | EC50 [2] [µM] | EC50 [3] [µM] | EC50 [4] [µM] | EC50 [5] [µM] | Structure (SMILES) |
| --- | --- | --- | --- | --- | --- |
| < 0.02 | 0.1 | > 10 | > 10 | > 10 | CCOC(=O)N1CC2(CC[C@@H](N3CCN(c4cc(F)cnc4-c4cnn(C(C)C)c4)CC3)C2)C1 |
| < 0.02 | > 10 | < 0.02 | > 10 | 0.02 | CCOC(=O)N1CC2(CC[C@@H](N3CCN(c4cc(F)cnc4-c4ccc(=O)[nH]c4)CC3)C2)C1 |
| < 0.02 | > 10 | > 10 | > 10 | > 10 | CCOC(=O)N1CC2(CC[C@@H](N3CCN(c4cc(F)cnc4-c4ccc(=O)n(C)c4)CC3)C2)C1 |

The next lines start with the compound.

| Structure (SMILES) | EC50 [1] [µM] | EC50 [2] [µM] | EC50 [3] [µM] | EC50 [4] [µM] | EC50 [5] [µM] |
| --- | --- | --- | --- | --- | --- |
| CCOC(=O)N1CC2(CC[C@@H](N3CCN(c4cc(F)cnc4-c4cscn4)CC3)C2)C1 | < 0.02 | 0.1 | – | – | – |
| CCOC(=O)N1CC2(CC[C@@H](N3CCN(c4cc(F)cnc4-c4cncs4)CC3)C2)C1 | < 0.02 | > 10 | < 0.02 | > 10 | > 10 |
| CCOC(=O)N1CC2(CC[C@@H](N3CCC(O)(c4cc(F)cnc4-c4cnccn4)CC3)C2)C1 | < 0.02 | > 10 | – | – | – |
| CCOC(=O)N1CC2(CC[C@@H](N3CCN(c4cc(F)cnc4-c4cccc(CO)c4)CC3)C2)C1 | < 0.02 | – | > 10 | > 10 | > 10 |
| CCOC(=O)N1CC2(CC[C@H](N3CCC(O)(c4cc(F)cnc4-c4cnccn4)CC3)C2)C1 | 0.02 | > 10 | – | – | – |
| CCOC(=O)N1CC2(CC[C@@H](N3CCN(c4cc(F)cnc4-c4cnn(C(F)F)c4)CC3)C2)C1 | < 0.02 | < 0.02 | > 10 | > 10 | > 10 |
| CCOC(=O)N1CC2(CC[C@@H](N3CCN(c4cc(F)cnc4-c4cncc(OC)c4)CC3)C2)C1 | < 0.02 | > 10 | < 0.02 | > 10 | > 10 |
| CCOC(=O)N1CC2(CC[C@@H](N3CCN(c4cccnc4-c4ccc(F)nc4)CC3)C2)C1 | < 0.02 | > 10 | > 10 | > 10 | 0.02 |
